The results in this text go back to patent US20020155192A1, “Yeast transport isoforms” (priority 2000, published 2002).

As a reminder, the Ki is the dissociation constant of the complex between target and ligand, obtained from inhibition or displacement.

What all share (assay type): biochemical
Assay [1] addresses T1, Odc1p (Saccharomyces cerevisiae, UniProt Q03028).
T1 construct: made in house; host or cells: S. cerevisiae odc1Δodc2Δ (YPH499 background) carrying pYES2-based pODC1; purified from mitochondria on Ni-NTA agarose
T1 sequence (Q03028 1-310): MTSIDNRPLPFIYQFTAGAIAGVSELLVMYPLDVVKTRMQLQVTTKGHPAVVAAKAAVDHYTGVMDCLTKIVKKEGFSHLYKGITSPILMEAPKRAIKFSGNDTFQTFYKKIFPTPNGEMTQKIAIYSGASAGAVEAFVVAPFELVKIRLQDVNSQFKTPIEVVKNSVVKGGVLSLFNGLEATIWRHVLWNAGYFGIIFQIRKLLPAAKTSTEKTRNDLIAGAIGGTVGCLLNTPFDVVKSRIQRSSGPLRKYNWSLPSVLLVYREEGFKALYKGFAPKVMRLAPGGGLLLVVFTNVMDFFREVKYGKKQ
Nature of the assay: Dependence on internal substrate of [14C]oxoglutarate uptake into proteoliposomes reconstituted with recombinant Odc1p. The note with it: for [14C]oxoglutarate transport: proteoliposomes preloaded with 20 mM internal substrate, 0.6 mM [14C]oxoglutarate, 45 seconds. The method, then:
(§1) Reconstitution of the ODC proteins into liposomes—Purified ODC proteins were reconstituted by cyclic removal of the detergent with a hydrophobic column (13). The composition of the initial mixture used for reconstitution was: 200 μl of purified isoform (0.3-0.4 μg of protein), 70 μl of 10% Triton X-114, 100 μl of 10% phospholipids in the form of sonicated liposomes, 20 mM oxoglutarate (except where otherwise indicated), 10 mM Pipes (pH 7.0), 0.7 mg of cardiolipin (Sigma) and water to a final volume of 700 μl. These components were mixed thoroughly, and the mixture was recycled 13 times through an Amberlite column (Supelco) (3.0 cm×0.5 cm) preequilibrated with a buffer containing 10 mM Pipes (pH 7.0) and with the substrate at the same concentration as in the starting mixture. All operations were performed at 4° C., except the passages through Amberlite, which were carried out at room temperature.
(§2) External substrate was removed from proteoliposomes on a Sephadex G-75 column preequilibrated with buffer F (50 mM NaCl and 10 mM PIPES, pH 7.0). Transport at 25° C. was started by adding [^14C]oxoglutarate (unless otherwise indicated) to the proteoliposomes, and terminated by addition of 30 mM pyridoxal 5′-phosphate and 10 mM bathophenanthroline (the “inhibitor-stop” method (13)). In controls, inhibitors were added with the labelled substrate. The external radioactivity was removed on Sephadex G-75 and the internal radioactivity was measured. […] The initial rate of transport was calculated in mmol/min per g protein from the time course of isotope equilibration (13). Various other transport activities were also assayed by the inhibitor-stop method. For efflux measurements, the internal substrate pool of the proteoliposomes was made radioactive by carrier-mediated exchange equilibration (13) with 0.1 mM [^14C]oxoglutarate added at high specific radioactivity. After 60 min, the residual external radioactivity was removed by passing the proteoliposomes again through a column of Sephadex G-75. Efflux was started by adding unlabelled external substrate or buffer F alone and terminated by adding the inhibitors indicated above.
(§3) The substrate specificity of purified Odc1p and Odc2p was investigated further by measuring the uptake of [^14C]oxoglutarate into proteoliposomes which had been preloaded with various substrates.
(§4) Proteoliposomes were preloaded internally with various substrates (concentration, 20 mM). Transport was started by adding [^14C]oxoglutarate (final concentration, 0.6 mM) and terminated after 45 seconds.

Assay [2] has as its target T1, Odc1p. Nature of the assay: Kinetic constants (Km, Vmax, Ki) of recombinant purified Odc1p in proteoliposomes. The note with it: for Ki: Lineweaver-Burk plots, 0.1-2.0 mM [14C]oxoglutarate, means ±S.D., read-out: Ki (competition with [14C]oxoglutarate uptake). As for the experimental part: as §2
(§5) The kinetic constants of the recombinant purified Odc1p and Odc2p were determined by measuring the initial transport rate at various external [^14C]oxoglutarate concentrations, in the presence of a constant saturating internal concentration of 20 mM oxoglutarate.
(§6) The values were calculated from Lineweaver-Burk plots of the rate of [^14C]oxoglutarate versus substrate concentrations. The competing substrates at appropriate constant concentrations were added together with 0.1-2.0 mM [^14C]oxoglutarate to proteoliposomes containing 20 mM oxoglutarate and reconstituted with recombinant Odc1p or Odc2p. The data represent the means ±S.D. of at least three different experiments. n.d., not determined.

For assay [3], the target named is T2, Odc2p (Saccharomyces cerevisiae, UniProt Q99297).
T2 construct: made in house; host or cells: S. cerevisiae odc1Δodc2Δ (YPH499 background) carrying pYES2-based pODC2; purified from mitochondria on Ni-NTA agarose
T2 sequence (Q99297 1-307): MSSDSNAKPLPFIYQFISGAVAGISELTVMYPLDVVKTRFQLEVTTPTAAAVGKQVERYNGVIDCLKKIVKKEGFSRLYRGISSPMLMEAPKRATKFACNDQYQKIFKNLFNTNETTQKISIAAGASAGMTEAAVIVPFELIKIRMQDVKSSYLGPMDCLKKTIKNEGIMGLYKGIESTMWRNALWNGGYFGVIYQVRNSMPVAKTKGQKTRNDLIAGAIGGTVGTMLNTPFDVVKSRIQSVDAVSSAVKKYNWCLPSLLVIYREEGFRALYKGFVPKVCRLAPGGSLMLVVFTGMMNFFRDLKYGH
Nature of the assay: Kinetic constants (Km, Vmax, Ki) of recombinant purified Odc2p in proteoliposomes. The method, then:
as §2, §5, §6

The target of assay [4] is T2, Odc2p. Put plainly: Dependence on internal substrate of [14C]oxoglutarate uptake into proteoliposomes reconstituted with recombinant Odc2p. The note with it: for [14C]oxoglutarate transport: proteoliposomes preloaded with 20 mM internal substrate, 0.6 mM [14C]oxoglutarate, 45 seconds. The method, then: as §1, §2, §3, §4
Assay [5] concerns the target T1, Odc1p. Nature of the assay: Effect of inhibitors and external compounds on the [14C]oxoglutarate/oxoglutarate exchange by proteoliposomes reconstituted with Odc1p. The method, then:
FIG. 5. Effect of dicarboxylates and 2-oxodicarboxylates with different carbon chain length on the rate of [^14C]oxoglutarate uptake into proteoliposomes reconstituted with recombinant Odc1p. Proteoliposomes were preloaded with 20 mM oxoglutarate and reconstituted with recombinant Odc1p. Transport was initiated by the addition of 0.4 mM [^14C]oxoglutarate and terminated after 45 seconds. Oxalate, malonate, succinate, glutarate, adipate, pimelate, suberate (▪) and the corresponding 2-oxoacids (●) were added simultaneously with [1^4C]oxoglutarate at 4.0 mM concentration.
as §1, §2
(§7) In addition, the ability of non-radioactive potential substrates to inhibit the oxoglutarate/oxoglutarate exchange was examined.
Proteoliposomes were preloaded internally with 20 mM oxoglutarate and transport was initiated by the addition of 0.4 mM [^14C]oxoglutarate.

The target in assay [6] is T2, Odc2p. Nature of the assay: Effect of inhibitors and external compounds on the [14C]oxoglutarate/oxoglutarate exchange by proteoliposomes reconstituted with Odc2p. The method, then: as §1, §2, §7
Proteoliposomes were preloaded internally with 20 mM oxoglutarate and transport was initiated by the addition of 0.4 mM [^14C]oxoglutarate. The incubation time was 45 seconds. Thiol reagents and α-cyanocinnamate were added 2 min before the labelled substrate; the other inhibitors and external substrates were added together with [^14C]oxoglutarate. The final concentration of the inhibitors was 4 mM, except for mercurials (10 μM), carboxyatractyloside (0.1 mM), N-ethylmaleimide and α-cyanocinnamate (2 mM).

The target of assay [7] is T1, Odc1p. Put plainly: Homoexchange of other substrates in proteoliposomes reconstituted with Odc1p. Conditions: internal concentration 10 mM, external concentration 1 mM. The method, then: as §2
(§8) In order to obtain further information about the mechanism of transport catalyzed by Odc1p and Odc2p, the efflux of [^14C]oxoglutarate from pre-labelled active proteoliposomes was investigated as it provides a more convenient assay for unidirectional transport (13).

In assay [8] the target is T2, Odc2p. Put plainly: Homoexchange of other substrates in proteoliposomes reconstituted with Odc2p. The note with it: internal concentration 10 mM, external concentration 1 mM. As for the experimental part: as §2, §8
Where [9] appears, read: Odc1p, proteoliposomes preloaded with various substrates.
[10] abbreviates: read-out: transport affinity (Km) for the oxoglutarate/oxoglutarate exchange.
Where [11] appears, read: Odc1p, 20 mM internal oxoglutarate.
Setting [12] is: Odc2p, proteoliposomes preloaded with various substrates.
The mark [13] stands for this setting: Odc1p, added with 0.4 mM [14C]oxoglutarate, 4.0 mM in FIG. 5, partly data not shown.

Where two headings read alike, the source gives them in different places. Some results are limits rather than exact numbers.

`O=C(O)CCC(=O)C(=O)O` [2-Oxoglutarate]: the “[14C]oxoglutarate transport” value in assay [1] (Odc1p) is 112.5 mmol/min per g protein. In assay [1] (setting [9]), the “[14C]oxoglutarate uptake with the internal substrate (in words)” value (from here on “[14C]oxoglutarate uptake”) is given as “taken up efficiently”. Moreover, the “specific activity (Vmax) for the oxoglutarate/oxoglutarate exchange” value in assay [2] (Odc1p, 25° C., 20 mM internal oxoglutarate, 24 experiments) amounted to 252±53 mmol/min per g protein; in assay [3] (Odc2p, 25° C., 20 mM internal oxoglutarate, 16 experiments), 73±17 mmol/min per g protein. In addition, the Km in assay [2] (setting [10]) came out at 520 ± 80 µM; in assay [3] (setting [10]), 470 ± 70 µM.
Regarding `O=C(O)CC(=O)C(=O)O` [Oxaloacetate], the Ki is over 15 mM in assay [2] (setting [11]) and over 15 mM in assay [3] (Odc2p, Lineweaver-Burk plots, 0.1-2.0 mM [14C]oxoglutarate, 20 mM internal oxoglutarate, means ±S.D., read-out: Ki (competition with [14C]oxoglutarate uptake)).
For the compound `CC(C)CC(=O)C(=O)O` [2-oxoisocaproate], the “[14C]oxoglutarate uptake” value in assay [1] (setting [9]) and in assay [4] (setting [12]) was “no exchange” in each case. The “effect of oxomonocarboxylates on the rate of uptake of 0.4 mM oxoglutarate (in words)” value in assay [5] (Odc1p, 8 mM, 20 times greater than the substrate, data not shown) is listed as “did not influence”; in assay [6] (Odc2p, 8 mM, 20 times greater than the substrate, data not shown) it was “did not influence”. Besides, the “homoexchange catalyzed by the proteoliposomes (in words)” value (shortened to “homoexchange catalyzed”) in assay [7] and in assay [8] was “did not catalyze homoexchanges” throughout.
Consider `C[N+](C)(C)CC(O)CC(=O)[O-]` (stereo not shown) [carnitine], for which the “[14C]oxoglutarate uptake” value in assay [1] (setting [9]) and in assay [4] (setting [12]) was “no exchange” in each case. Besides, the “homoexchange catalyzed” value in assay [7] and in assay [8] was “did not catalyze homoexchanges” each time.
In the case of phosphate, the “[14C]oxoglutarate uptake” value in assay [1] (setting [9]) and in assay [4] (setting [12]) was “no exchange” in each case. The “homoexchange catalyzed” value in assay [7] and in assay [8] was “did not catalyze homoexchanges” in each case.
Turning to `NC(=O)CC[C@H](N)C(=O)O` [glutamine], the “[14C]oxoglutarate uptake” value in assay [1] (setting [9]) and in assay [4] (setting [12]) was “no exchange” in each case. The “effect of non-radioactive potential substrates on the rate of oxoglutarate uptake (in words)” value in assay [5] (setting [13]) is reported as “no effect”; in assay [6] (Odc2p, data not shown) it was “no effect”. Besides, the “homoexchange catalyzed” value in assay [7] and in assay [8] was “did not catalyze homoexchanges” throughout.
Turning to `N[C@@H](CCC(=O)O)C(=O)O` [glutamate], the “[14C]oxoglutarate uptake” value in assay [1] (setting [9]) and in assay [4] (setting [12]) was “no exchange” throughout. Also, the “homoexchange catalyzed” value in assay [7] and in assay [8] was “did not catalyze homoexchanges” in each case.
`NCCC[C@H](N)C(=O)O` [ornithine]: the “homoexchange catalyzed” value in assay [7] and in assay [8] was “did not catalyze homoexchanges” throughout.
With `O=C(O)CCC(=O)O` [Succinate], the “[14C]oxoglutarate transport” value amounted to 19.1 mmol/min per g protein in assay [1] (Odc1p) and 4.3 mmol/min per g protein in assay [4] (Odc2p). The “[14C]oxoglutarate uptake” value in assay [1] (setting [9]) and in assay [4] (setting [12]) was “much lower activity” in each case. Moreover, the “effect of non-radioactive potential substrates on the rate of oxoglutarate uptake (in words)” value is “virtually no effect” in assay [5] (setting [13]) and “virtually no effect” in assay [6] (Odc2p, data not shown). In addition, in assay [2] (setting [11]), the Ki was over 15 mM.
With `O=S(=O)(O)O` [sulfate], the “[14C]oxoglutarate uptake” value in assay [1] and in assay [4] was “no exchange” throughout. Besides, the “homoexchange catalyzed” value in assay [7] and in assay [8] was “did not catalyze homoexchanges” each time.
For `O=C(O)CCCCCC(=O)O` [Pimelate], the “[14C]oxoglutarate transport” value came to 48.4 mmol/min per g protein in assay [1] (Odc1p) and 10.4 mmol/min per g protein in assay [4] (Odc2p). In addition, the “[14C]oxoglutarate uptake” value in assay [1] (setting [9]) and in assay [4] (setting [12]) was “taken up efficiently” in each case. The “effect of non-radioactive potential substrates on the rate of oxoglutarate uptake (in words)” value in assay [5] and in assay [6] was “significant inhibition” in each case.
`Nc1ncnc2c1ncn2[C@@H]1O[C@H](COP(=O)(O)OP(=O)(O)O)[C@@H](O)[C@H]1O` [ADP]: the “[14C]oxoglutarate uptake” value in assay [1] (setting [9]) and in assay [4] (setting [12]) was “no exchange” throughout. The “homoexchange catalyzed” value in assay [7] and in assay [8] was “did not catalyze homoexchanges” each time.
